Test results as given in ChEMBL document CHEMBL1201862, “PubChem BioAssay data set” (2004).
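96-well plates; 48 h exposure; 5 concentrations. Endpoints by linear interpolation between flanking doses. Not reached: highest tested concentration assigned. The concentration for 50% growth inhibition is given as GI50.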 Activity calls are given as the source filed them. Cut-off read from the data, not from the text of the source: active = GI50 up to about 1.1 µM and inactive = higher.

Key:
Assay in all cases: DTP human tumour cell line panel, 48 h
RXF 631 = tested on: RXF 631
LXFL 529 = tested on: LXFL 529
DMS-114 = tested on: DMS-114
DLD-1 = tested on: DLD-1
DMS-273 = tested on: DMS-273
M19-MEL = tested on: M19-MEL
SNB-78 = tested on: SNB-78
Hs-578T = tested on: Hs-578T
HOP-18 = tested on: HOP-18

| Compound | GI50 (DMS-114) | GI50 (DLD-1) | GI50 (DMS-273) | GI50 (M19-MEL) | GI50 (Hs-578T) | also measured |
| --- | --- | --- | --- | --- | --- | --- |
| NC(=O)N/N=C(/c1nc2ccc([N+](=O)[O-])cc2nc1O)C(O)c1ccco1 (centres undefined) | 28.8 µM (inactive) | > 100 µM (inactive) | 20.5 µM (inactive) | 79.8 µM (inactive) | – | GI50 (RXF 631): 48.2 µM (inactive); GI50 (LXFL 529): 36.8 µM (inactive); GI50 (SNB-78): > 100 µM (inactive) |
| CSc1c(CC(=O)Nc2ccc(Cl)cc2)n(Cc2ccccc2)c2ccccc12 | – | – | – | – | 14.4 µM (inactive) | – |
| CC(=O)NCCC1CN(C(=O)/C=C/I)c2ccccc21 (centres undefined) | – | – | – | – | 9.66 µM (inactive) | – |
| COC(=O)c1ccccc1C1=C([N+](=O)[O-])C(c2cccc(Br)c2)C(C#N)=C(N)O1 (centres undefined) | – | – | – | – | 18.3 µM (inactive) | – |
| CNC(=O)Oc1ccc(C(=S)Nc2ccc(Br)cc2)cc1 | – | – | – | – | 19.8 µM (inactive) | – |
| CCOC(=O)c1[nH]c(Br)c(-c2ccc(OC)c(OC)c2)c1Br | – | – | – | – | 0.0369 µM (active) | – |
| CCOC(=O)C(C(=O)OCC)S(C)(=O)=O | > 100 µM (inactive) | > 100 µM (inactive) | > 100 µM (inactive) | > 100 µM (inactive) | – | GI50 (RXF 631): > 100 µM (inactive); GI50 (HOP-18): > 100 µM (inactive) |
| O=C(O)C/N=C(\C(=N\CC(=O)O)c1ccccc1)c1ccccc1 | – | – | – | – | > 100 µM (inactive) | – |
| O=C1c2ccccc2C(=O)C2C3c4ccccc4C(c4ccccc43)C12 (centres undefined) | 16.8 µM (inactive) | > 100 µM (inactive) | 19.1 µM (inactive) | 18.5 µM (inactive) | – | GI50 (LXFL 529): 15.3 µM (inactive); GI50 (SNB-78): 18.7 µM (inactive) |
| COc1cccc(OC)c1NC(=O)C(=O)Nn1c(NNC(=O)c2ccncc2)nc2ccccc2c1=O | – | – | – | – | > 100 µM (inactive) | – |
| CCN(CC)c1ccc(C2NC(=O)c3ccccc3N2)cc1 (centres undefined) | – | – | – | – | 9.64 µM (inactive) | – |
| O=C1C=CC2(C=C1)O[C@H](COCc1ccccc1)[C@@H](COCc1ccccc1)O2 | – | – | – | – | 1.75 µM (inactive) | – |
| CC12C=CC(=O)C=C1CCC1C3CCC(O)(C(=O)CO)C3(C)CC(O)C12F (centres undefined) | > 100 µM (inactive) | > 100 µM (inactive) | > 100 µM (inactive) | > 100 µM (inactive) | > 100 µM (inactive) | GI50 (LXFL 529): > 100 µM (inactive); GI50 (SNB-78): > 100 µM (inactive) |
| CCOC(=O)C1=C(C(=O)OCC)SC2(S1)C(C(=O)OCC)=C(C(=O)OCC)Sc1c2ssc1=O | – | – | – | – | 1.97 µM (inactive) | – |
| CN1CC2=C(OC(N)=C(C#N)C2c2cccs2)/C(=C/c2cccs2)C1 (centres undefined) | – | – | – | – | > 100 µM (inactive) | – |
| O=C(CC(NC(=O)OCc1ccccc1)C(=O)NC1Cc2ccccc2C1=O)OCc1ccccc1 (centres undefined) | – | – | – | – | 84.3 µM (inactive) | – |
| c1ccc(CN2CCCCC(Sc3ccccc3)CC2)cc1 (centres undefined) | 22.4 µM (inactive) | 20.8 µM (inactive) | 12.6 µM (inactive) | 3.1 µM (inactive) | – | GI50 (LXFL 529): 17.7 µM (inactive); GI50 (SNB-78): 27.2 µM (inactive); GI50 (HOP-18): 42.7 µM (inactive) |

| Compound | GI50 (DMS-114) | GI50 (DLD-1) | GI50 (DMS-273) | GI50 (M19-MEL) | GI50 (Hs-578T) | also measured |
| --- | --- | --- | --- | --- | --- | --- |
| CCc1ccc(Nc2ccc([N+](=O)[O-])cc2[N+](=O)[O-])cc1 | 29.4 µM (inactive) | > 100 µM (inactive) | 96.6 µM (inactive) | > 100 µM (inactive) | – | GI50 (LXFL 529): 50.9 µM (inactive); GI50 (SNB-78): 87.3 µM (inactive) |
| COc1ccc(Cl)cc1NC(=O)O/N=C(\Cl)C(C)C | – | – | – | – | 23.7 µM (inactive) | – |
| Nc1cnc(Nc2cccc3ccccc23)o1 | – | – | – | – | > 10 µM (inactive) | – |
| CC(=O)NC1C(OC(C)C(=O)NC(C)C(=O)NC(CCC(=O)NCCCCCNc2ccc([N+](=O)[O-])c3[nH]c4ccccc4c(=O)c23)C(N)=O)C(O)C(CO)OC1(C)OCc1ccccc1 (centres undefined) | – | – | – | – | > 100 µM (inactive) | – |
| CC(C)(C)OC(=O)NC(CCCCNC(=O)OCc1ccccc1)C(=O)NC(CCCCNC(=O)OCc1ccccc1)C(=O)ON1C(=O)CCC1=O (centres undefined) | – | – | – | – | > 100 µM (inactive) | – |
| CC(C)[C@@H]1CC[C@@H](C)C[C@H]1OC(=O)c1c2n(c3ccccc13)C[C@H]1OC(C)(C)O[C@@H]21 | – | – | – | – | 16.7 µM (inactive) | – |
| CO[C@H]1[C@@H](O)[C@@H](C)O[C@@H](O[C@H]2CC[C@@]3(C)[C@H](CC[C@@H]4[C@@H]3CC[C@]3(C)[C@@H](C5=CC(=O)OC5)CC[C@]43O)C2)[C@@H]1O [ODOROSIDE H] | – | – | – | – | 0.00454 µM (active) | – |
| CSc1n[nH]c2[nH]nc(C)c12 | – | – | – | – | > 100 µM (inactive) | – |
| O=c1[nH]nc(-c2ccccc2)n1/N=C/c1ccncc1 | – | – | – | – | 26.2 µM (inactive) | – |
| CNC(SC)=C1C(=O)OC(C)(C)OC1=O | 34.8 µM (inactive) | 22.2 µM (inactive) | 0.499 µM (active) | > 100 µM (inactive) | – | GI50 (LXFL 529): > 100 µM (inactive); GI50 (SNB-78): 36.4 µM (inactive); GI50 (HOP-18): > 100 µM (inactive) |
| COc1ccc(C2=NN(c3ccccc3)C[N+](c3ccc(C)cc3)=N2)cc1 | 24.7 µM (inactive) | 40.6 µM (inactive) | > 10 µM (inactive) | 29.9 µM (inactive) | – | GI50 (LXFL 529): 16.3 µM (inactive); GI50 (SNB-78): 27.9 µM (inactive) |
| CC(=O)O[C@H]1CCC2[C@@H]3CCC4c5nonc5CC[C@]4(C)C3CC[C@@]21C (some centres undefined) | > 10 µM (inactive) | > 10 µM (inactive) | > 10 µM (inactive) | > 10 µM (inactive) | – | GI50 (LXFL 529): > 10 µM (inactive); GI50 (SNB-78): > 10 µM (inactive); GI50 (HOP-18): > 10 µM (inactive) |
| CN(C)CCNC(=O)c1ccc(Cl)c2c(Nc3ccc(S(N)(=O)=O)cc3)c3ccccc3nc12 | 1.76 µM (inactive) | 1.31 µM (inactive) | 1.55 µM (inactive) | 1.63 µM (inactive) | – | GI50 (RXF 631): 0.566 µM (active); GI50 (LXFL 529): 0.564 µM (active); GI50 (HOP-18): 2.2 µM (inactive) |
| N#CCOc1ccc(/C=C/C(=O)c2ccc(Cl)cc2)cc1 | – | – | – | – | 18.2 µM (inactive) | – |
| C/C(=C\c1ccc(Cl)c(Cl)c1)[N+](=O)[O-] | – | – | – | – | 3.24 µM (inactive) | – |
| Cn1c(=O)nc2n(CCO)ccnc-2c1=O | – | – | – | – | 91.4 µM (inactive) | – |
